Key:
HCT116 = experiment: Cell viability assay (MTT), HCT116; type: cell-based, human; conditions: 1% DMSO
Description: (§1) Table 12: 6-day cell viability assay (MTT) in the presence of 10% Fetal Bovine Serum and 1% DMSO, in HMEC1, HCT116, MDA-MB-231, MCF7 and NIH3T3 cell lines. 3 10^3 to 15 10^3 cells were seeded in 48-well plates in growth medium containing 10% FBS, with or without various concentrations of test compounds. Cell cultures were fed every 3 days with the appropriate media. Cell viability was determined on day 6. Data were analyzed and IC50s were calculated from dose-response curves using GraphPad Prism. Results summarized in the tables are mean±SEM of 1 to 8 independent experiments.
(§2) Table 13: 6-day cell viability assay (MTT) in the presence of 0.5% Fetal Bovine Serum and 1% DMSO, in HCT116 and MDA-MB-231 cell lines. 7.5 10^4 to 15 10^4 cells were seeded in 48-well plates in growth medium containing 10% FBS, with or without various concentrations of test compounds. Cell cultures were fed every 3 days with the appropriate media. Cell viability was determined on day 6. Data were analyzed and IC50s were calculated from dose-response curves using GraphPad Prism. Results summarized in the tables are mean±SEM of 1 to 2 independent experiments.
(§3) Table 14: 3-day cell viability assay (MTT) in the presence of 10% Fetal Bovine Serum and 1% DMSO, in DLD1, HCT116, MDA-MB-231, MCF7 and HeLa cells. 7.5 10^3 to 1.5 10^4 cells were seeded in 48-well plates in growth medium containing 10% FBS, with or without various concentrations of test compounds. Data were analyzed and IC50s were calculated from dose-response curves using GraphPad Prism. Results summarized in the tables are mean±SEM of 1 to 7 independent experiments.
(§4) Table 15: 16-hour cell viability assay (MTT) in the presence of 10% Fetal Bovine Serum and 1% DMSO, in HCT116, MDA-MB-231, NIH3T3, HepG2 and primary hepatocytes. 5 10^4 to 10 10^4 cells were seeded in 48-well plates in growth medium containing 10% FBS, with or without various concentrations of test compounds. Data were analyzed and IC50s were calculated from dose-reponse curves using GraphPad Prism. Results summarized in the tables are mean±SEM of 1 to 2 independent experiments.
(§5) In order to determine a compound's effect on cell viability, microculture tetrazolium assays (MTT) were performed as described by Carmichael et al. (1996) with modifications. Four human tumoral cell lines, namely HCT116 colon adenocarcinoma, H460 lung carcinoma, MCF-7 and MDA-MB-231 breast carcinoma cell lines, DLD1 colorectal adenocarcinoma, HeLa adenocarcinoma, HepG2 hepatocellular carcinoma. 3 immortalized but non tumorigenic cell lines, namely NIH3T3 mouse fibroblasts (American Type Culture Collection) and primary hepatocytes (Biopredic international), cultured according to their recommendations together with Human Microvasculature Endothelial Cell line HMEC1 (National Center for Infectious Diseases). Briefly, cells were seeded in 48-well plates 24 hours before drug addition. Cells were treated with 0 to 200 μM (11 concentrations) of compound solubilized in DMSO, adjusting the final concentration of DMSO to 1% in the well. 16 hours, and three or six days after treatment, 0.5 mg/ml MTT (Sigma) was added to the medium and cells were incubated for 1-5 hours at 37° C. before solubilization of formazan crystals in 100% DMSO. Absorbance was measured using a spectrophotometer at a wavelength of 550 nm. Data was analyzed using the GraphPad Prism software (GraphPad Software, Inc.), and IC50 (dose leading to 50% cell death) was calculated from the dose-response curves.

DLD1 = experiment: Cell viability assay (MTT), DLD1; type: cell-based; conditions: Homo sapiens, DLD-1, 72 h, 10% FBS, 3-day treatment, 1% DMSO
Description: as §3, §5

HMEC1 = experiment: Cell viability assay (MTT), HMEC1; type: cell-based, Human; conditions: 10% FBS; for IC50: MTT, 6-day treatment, 1% DMSO
Description: as §1, §5

NIH 3T3 = experiment: Cell viability assay (MTT), NIH 3T3; type: cell-based, mouse; conditions: 10% FBS, 6-day treatment, 1% DMSO
Description: as §1, §4, §5

MDA-MB-231 [1] = experiment: Cell viability assay (MTT), MDA-MB-231; type: cell-based, human; conditions: 10% FBS, 6-day treatment, 1% DMSO, read-out: IC50 μM, MDA-MB-231
Description: as §1, §2, §3, §4, §5

HMEC-1 cells = experiment: Tubule formation (tubulogenesis) assay on Matrigel; type: cell-based, Human
Description: FIG. 5: Tubulogenesis assay (number of junctions). 2 10^4 Cells were plated on Matrigel-coated wells as described in the material and methods. Pictures of each well were taken after a 7-hours incubation. The “number of junctions” parameter was quantitated using the AngioSys software and data were analyzed using GraphPad Prism for IT50 calculation. Values represent the mean±SEM of 2 to 30 independent experiments.
The endothelial cell tube formation assay, or tubulogenesis assay, is an in vitro assay that is widely accepted to accurately reflect number of terminal stages of the angiogenic process such as attachment, migration and differentiation into tubular structures. In this model, endothelial cells are cultured on a monolayer of reconstituted basement membrane components (Matrigel) and form, in a few hours, capillary-lilke structure. Therefore, this system is a useful and powerful tool for rapidly screening anti-angiogenic agents by monitoring inhibition of endothelial cells morphogenesis on extracellular matrix.
HMEC-1 cell line is cultured in MCDB-131 medium (Sigma) supplemented with 15% FBS, 10 ng/ml recombinant human epidermal growth factor (Invitrogen) and 1 μg/ml hydrocortisone. Cells are cultured to 70-80% confluence. A 96-well plate was coated with Matrigel® Basement Membrane Matrix (Becton Dickinson). 2 10^4 HMEC-1 cells were seeded into each well. The test or control compounds were diluted in DMSO and added to the coated plate. The plate was subsequently incubated for 6 to 8 hours at 37° C., 5% CO2 atmosphere to allow tubule formation. The cells were then incubated with 1.25 μg/ml Calcein AM for 15 minutes at 37° C., 5% CO2. Pictures of each well were taken using a fluorescent microscope and a digital camera (Nikon Coolpix 990). Images were analysed using AngioSys software (TCS Cellworks) that allows quantification of the total tubule length and of the number of junctions, two parameters representative of tubule formation/disruption. Data was analyzed using the GraphPad Prism software, and IT50s (dose leading to 50% inhibition of tubulogenesis) was calculated.

MCF7 = experiment: Cell viability assay (MTT), MCF7; type: cell-based; conditions: Homo sapiens, MCF7, 144 h, 10% FBS, 6-day treatment, 1% DMSO
Description: as §1, §3, §5

NIH3T3 = experiment: Boyden chamber migration assay, NIH3T3; type: cell-based, mouse; conditions: FBS as chemoattractant
Description: (§6) FIG. 4: Migration assays. (A) Wound healing assay in REF cells. 7.6 10^4 cells were plated on coverslips 48 hours before the experiment. The cells were pre-treated for 30 min. with the compounds, and then a scrape was done using a pipette tip. The scraped coverslips in treatment medium were put under a thermostated microscope coupled to a video camera. Movies were analyzed as described in material and methods, and velocity and total distance covered by the cells were evaluated. Bar graphs represent the mean±SEM of 2 to 4 experiments. (B) Boyden chamber migration assay in HMEC1, NIH3T3 and MDA-MB-231 cells. 5 10^4 to 7.5 10^4 Cells, resuspended in culture medium with or without FBS and with different compound concentrations, were seeded in the upper Boyden blind well on top of 8 μm pore-sized filters. The ability of the cells to migrate through the filter was assayed in the absence or presence of FBS in the lower Boyden chamber. After 16 hours incubation, the medium was removed and replaced with calcein-AM containing medium. After labeling, cells were washed with HBSS and fluorescence was read in a fluorescence plate reader. Fluorescence values were normalized against the fluorescence obtained for the 1% DMSO control. The data plotted are the means±SEM of 2 to 4 independent experiments.
(§7) An essential characteristic of malignant cells is their ability to migrate, invade host tissues and to produce metastases. In order to evaluate the capacity of one compound to affect the ability of tumoral cells to migrate, migration assays were performed using highly invasive tumoral cells MDA-MB-231, endothelial cells HMEC1 or fibroblastic cells NIH3T3. This assay was performed using Falcon HTS Fluoroblock inserts. Culture medium containing Fetal Bovine Serum (FBS; which is used as a chemoattractant) was added to the plate wells and 2 10^4 to 7.5 10^4 cells resuspended in medium without FBS and with 0.1% BSA were added to each insert well. The compound of interest was added to the medium in both the upper and the lower chambers. Plates were incubated for 16 hours at 37° C. Following incubation, the medium was removed from the upper chamber and the entire insert plate was transferred to a second 24-well plate containing 4 μg/ml Calcein-AM™ in medium containing 0.1% BSA. The plates were incubated for one hour at 37° C., rinsed with Hanks Buffered Saline (HBSS). Fluorescence data were collected using Fluoroskan Ascent FL fluorescence plate reader at an excitation wavelength (Ex) of 485 nm and emission wavelength (Em) of 517 nm. Only those labelled cells that passed through the Matrigel layer and the membrane were detected. Data were analyzed using the GraphPad Prism software and IM50s (dose at which 50% inhibition of cell migration is observed) were calculated.

MDA-MB-231 [2] = experiment: Boyden chamber migration assay, MDA-MB-231; type: cell-based, human; conditions: FBS as chemoattractant; 16 hours
Description: as §6, §7

[3] = Homo sapiens, HCT-116, 144 h, 10% FBS, 6-day treatment
[4] = Homo sapiens, MDA-MB-231, 144 h

Structure (SMILES)	IC50 (HCT116; 10% FBS, 6-day treatment) [µM]	IC50 (HCT116; [3]) [µM]	IC50 (HMEC1; Homo sapiens, HMEC-1, 144 h) [µM]	IC50 (NIH 3T3; Mus musculus, NIH3T3, 144 h) [µM]	IC50 (MDA-MB-231 [1]) [µM]	IC50 (MDA-MB-231 [1]; [4]) [µM]	IC50 (HMEC1) [µM]	also measured
O=c1[nH]cc(F)c(=O)[nH]1 [5FU, 5-FluoroUracile, reference compound]								IC50 (HCT116; Homo sapiens, HCT-116, 72 h, 10% FBS, 3-day treatment): 7.83 µM; IC50 (DLD1): 5.44 µM
O=c1cc(CN2CCOCC2)occ1OCc1ccc(CSc2ccnc3cc(C(F)(F)F)ccc23)cc1 [EHT 2218, 5-((4-((7-(Trifluoromethyl)quinolin-4-ylthio)methyl)phenyl)methoxy)-2-(morpholinomethyl)-4H-pyran-4-one]	3.7	< 4	19.3	26	5	< 9		IC50 (HCT116; Homo sapiens, HCT-116, 144 h, 0.5% FBS, 6-day treatment): 3.3 µM; fold more active than reference compound CAI in tubulogenesis (HMEC-1 cells; HMEC1 on Matrigel): 4 fold; IC50 (HMEC-1 cells; Homo sapiens, HMEC-1, HMEC1 on Matrigel, 6 to 8 hours, read-out: IC50, tubulogenesis (number of junctions)): 30.8 µM
CCN(CC)C(=O)N1CCN(Cc2cc(=O)c(OCCCCCSc3ccnc4cc(C(F)(F)F)ccc34)co2)CC1 [EHT 5743, 4-((5-(5-(7-(Trifluoromethyl)quinolin-4-ylthio)pentyloxy)-4-oxo-4H-pyran-2-yl)methyl)-N,N-diethylpiperazine-1-carboxamide]			< 10	2.4	8.8	< 9	8	difference of activity in HMEC1 cells as compared to HCT116 cells (HMEC1; MTT 6 days, compounds most active in HCT116): 20 fold; IC50 (MCF7): 1.2 µM
O=c1cc(CN2CCOCC2)occ1OCCCCCSc1ccnc2cc(C(F)(F)F)ccc12 [EHT 7168, 2-Morpholin-4-ylmethyl-5-[5-(7-trifluoromethyl-quinolin-4-ylsulfanyl)-pentyloxy]-4H-pyran-4-one]	4.9				9.8		25.2	IC50 (NIH 3T3): 12.7 µM; IC50 (NIH3T3; Mus musculus, NIH3T3, 16 h): 16.4 ± 3.4 µM
CN1CCN(Cc2cc(=O)c(OCCCCCSc3ccnc4cc(C(F)(F)F)ccc34)co2)CC1 [EHT 7365, 2-(4-Methyl-piperazin-1-ylmethyl)-5-[5-(7-trifluoromethyl-quinolin-4-ylsulfanyl)-pentyloxy]-4H-pyran-4-one]	5.4			6.5			8.3	IC50 (MDA-MB-231 [2]): 3.9 ± 0.8 µM; IC50 (NIH3T3; 16 hours): 6.1 ± 1.1 µM
Cc1[nH]c(/C=C2\C(=O)Nc3ccccc32)c(C)c1CCC(=O)O [SU-6668, reference compound]		18.9	36	35.7		22.5		potency in tubulogenesis assay (HMEC-1 cells; VEGF and FGF free conditions): weakly potent
